Data: patent US20190381017A1, “Compositions Comprising Serdexmethylphenidate Conjugates And Methods Of Use Thereof” (KemPharm, Inc., priority 2018, published 2019)

Experiments:
[1] = tested on: recreational stimulant users; assay: Treatment-emergent adverse events, intravenous study (Example 2); conditions: SDX Cl 30 mg (N=31), d-MPH HCl 15 mg (N=30)
Method: A study was conducted in humans to assess the intravenous abuse potential of serdexmethylphenidate relative to unconjugated d-methylphenidate and placebo in recreational stimulant abusers. This was a Phase 1, randomized, double-blind study in which serdexmethylphenidate and d-methylphenidate were administered intravenously in recreational stimulant users with a history of non-oral abuse. In Part A of the study, subjects (Cohort 1) participated in a dose-escalation phase to determine the optimal dose of intravenous d-methylphenidate based on tolerability and abuse-related pharmacodynamic assessments. […] The doses of serdexmethylphenidate and d-methylphenidate are equivalent with respect to molar amount of d-methylphenidate. FDA-recommended abuse potential measures and blood samples were collected at different times after dosing. Safety assessments were performed throughout the study.

[2] = tested on: healthy, nondependent, recreational stimulant users with intranasal insufflation experience; assay: Treatment-emergent adverse events, intranasal study (Example 5, Table 54)
Method: The study consisted of a Screening Period, an in-clinic Drug Discrimination Phase, a Treatment Phase, and a Follow-Up Visit.
All subjects were required to fast for at least 8 hours prior to each dose of study drug until approximately 4 hours after each dose. Abuse potential measures and pharmacokinetic samples were collected at different times after the administration of study drug. Subjects who successfully completed the Drug Discrimination Phase and who qualified for the Treatment Phase remained as inpatients to enter the Treatment Phase.

[3] = tested on: healthy, nondependent, recreational stimulant users; assay: Oral abuse potential, VAS pharmacodynamic scores (Example 4); conditions: for Drug Liking Emax (mean) / Drug Liking Emax (median) / Feeling Alert/Drowsy Emax (mean) / Feeling Alert/Drowsy Emax (median) / Overall Drug Liking Emax (mean) / Overall Drug Liking Emax (median) / Take Drug Again Emax (mean) / Take Drug Again Emax (median): bipolar VAS; for Any Effects Emax (mean) / Any Effects Emax (median) / Bad Effects Emax (mean) / Bad Effects Emax (median) / Feeling High Emax (mean) / Feeling High Emax (median) / Good Effects Emax (mean) / Good Effects Emax (median): unipolar VAS
[4] = d-MPH HCl 40 mg (N = 46), SDX Cl 80 mg (N = 46)
[5] = SDX Cl 120 mg, Focalin XR 80 mg, phentermine HCl 60 mg

SMILES: COC(=O)[C@H](c1ccccc1)[C@H]1CCCCN1C(=O)OC[n+]1cccc(C(=O)N[C@@H](CO)C(=O)O)c1.[Cl-] [serdexmethylphenidate chloride]
- TEAE Change in sustained attention, % of subjects [1]: (0.0) %
- TEAE Change in sustained attention, n subjects [1]: 0
- TEAE Dry mouth, % of subjects [1]: (0.0) %
- TEAE Dry mouth, n subjects [1]: 0
- TEAE Energy increased, % of subjects [1]: (6.5) %
- TEAE Energy increased, n subjects [1]: 2
- TEAE Euphoric mood, % of subjects [1]: (12.9) %
- TEAE Euphoric mood, n subjects [1]: 4
- TEAE Feeling abnormal, % of subjects [1]: (3.2) %
- TEAE Feeling abnormal, n subjects [1]: 1
- TEAE Feeling hot, % of subjects [1]: (6.5) %
- TEAE Feeling hot, n subjects [1]: 2
- TEAE Feeling jittery, % of subjects [1]: (0.0) %
- TEAE Feeling jittery, n subjects [1]: 0
- TEAE Feeling of relaxation, % of subjects [1]: (0.0) %
- TEAE Feeling of relaxation, n subjects [1]: 0
- TEAE Headache, % of subjects [1]: (3.2) %
- TEAE Headache, n subjects [1]: 1
- TEAE Heart rate increased, % of subjects [1]: (0.0) %
- TEAE Heart rate increased, n subjects [1]: 0
- TEAE Hyperhidrosis (sweaty hands), % of subjects [1]: (3.2) %
- TEAE Hyperhidrosis (sweaty hands), n subjects [1]: 1
- TEAE Hypervigilance, % of subjects [1]: (12.9) %
- TEAE Hypervigilance, n subjects [1]: 4
- TEAE Nausea, % of subjects [1]: (0.0) %
- TEAE Nausea, n subjects [1]: 0
- TEAE Palpitations, % of subjects [1]: (0.0) %
- TEAE Palpitations, n subjects [1]: 0
- TEAE Paraesthesia (tingling), % of subjects [1]: (0.0) %
- TEAE Paraesthesia (tingling), n subjects [1]: 0
- TEAE Sinus tachycardia, % of subjects [1]: (0.0) %
- TEAE Sinus tachycardia, n subjects [1]: 0
- TEAE Somnolence, % of subjects [1]: (3.2) %
- TEAE Somnolence, n subjects [1]: 1
- TEAE Tachycardia, % of subjects [1]: (0.0) %
- TEAE Tachycardia, n subjects [1]: 0
- nasal discomfort, nasal congestion, rhinorrhoea, epistaxis, increased lacrimation, frequency vs intranasal d-MPH HCl ([2]; SDX Cl 80 mg vs d-MPH HCl 40 mg): occurred more often
- TEAE: Back pain [2, 4]: 0 n (%) [E]
- TEAE: Blood pressure diastolic increased [2, 4]: 0 n (%) [E]
- TEAE: Bruxism [2, 4]: 0 n (%) [E]
- TEAE: Change in sustained attention [2, 4]: 0 n (%) [E]
- TEAE: Chest discomfort [2, 4]: 0 n (%) [E]
- TEAE: Decreased appetite [2, 4]: 0 n (%) [E]
- TEAE: Defaecation urgency [2, 4]: 0 n (%) [E]
- TEAE: Dry mouth [2, 4]: 0 n (%) [E]
- TEAE: Dry throat [2, 4]: 0 n (%) [E]
- TEAE: Dysmenorrhoea (menstrual cramps) [2, 4]: 0 n (%) [E]
- TEAE: Dyspepsia [2, 4]: 0 n (%) [E]
- TEAE: Energy increased [2, 4]: 0 n (%) [E]
- TEAE: Eye irritation [2, 4]: 0 n (%) [E]
- TEAE: Feeling hot [2, 4]: 0 n (%) [E]
- TEAE: Flushing [2, 4]: 0 n (%) [E]
- TEAE: Haematoma [2, 4]: 0 n (%) [E]
- TEAE: Hypopnoea (shallow breathing) [2, 4]: 0 n (%) [E]
- TEAE: Infections and infestations [2, 4]: 0 n (%) [E]
- TEAE: Investigations [2, 4]: 0 n (%) [E]
- TEAE: Metabolism and nutrition disorders [2, 4]: 0 n (%) [E]
- TEAE: Muscle tightness [2, 4]: 0 n (%) [E]
- TEAE: Muscle twitching [2, 4]: 0 n (%) [E]
- TEAE: Neck pain [2, 4]: 0 n (%) [E]
- TEAE: Obsessive-compulsive disorder [2, 4]: 0 n (%) [E]
- TEAE: Peripheral swelling [2, 4]: 0 n (%) [E]
- TEAE: Pharyngeal hypoaesthesia (numbness of throat) [2, 4]: 0 n (%) [E]
- TEAE: Pharyngitis [2, 4]: 0 n (%) [E]
- TEAE: Phlebitis superficial [2, 4]: 0 n (%) [E]
- TEAE: Phonophobia (fear of loud noises) [2, 4]: 0 n (%) [E]
- TEAE: Photophobia [2, 4]: 0 n (%) [E]
- TEAE: Pyrexia [2, 4]: 0 n (%) [E]
- TEAE: Reproductive system and breast disorders [2, 4]: 0 n (%) [E]
- TEAE: Restlessness [2, 4]: 0 n (%) [E]
- TEAE: Sinus tachycardia [2, 4]: 0 n (%) [E]
- TEAE: Tachycardia [2, 4]: 0 n (%) [E]
- TEAE: Testis discomfort [2, 4]: 0 n (%) [E]
- TEAE: Vascular disorders [2, 4]: 0 n (%) [E]
- TEAE: Ventricular extrasystoles [2, 4]: 0 n (%) [E]
- TEAE: Vessel puncture site bruise [2, 4]: 0 n (%) [E]
- TEAE: Vessel puncture site pain [2, 4]: 0 n (%) [E]
- TEAE: Visual impairment [2, 4]: 0 n (%) [E]
- TEAE: Vomiting [2, 4]: 0 n (%) [E]
- Mean difference Bad Effects Emax vs placebo ([3]; SDX Cl 120 mg, Focalin XR 80 mg): 1.3
- Mean difference Any Effects Emax vs placebo [3, 5]: 11.0
- Mean difference Drug Liking Emax vs placebo [3, 5]: 6.8
- Mean difference Feeling Alert/Drowsy Emax vs placebo [3, 5]: 7.7
- Mean difference Feeling High Emax vs placebo [3, 5]: 10.4
- Mean difference Good Effects Emax vs placebo [3, 5]: 12.1
- Mean difference Overall Drug Liking Emax vs placebo [3, 5]: 3.8
- Mean difference Take Drug Again Emax vs placebo [3, 5]: 2.2
- Drug Liking Emax (mean) [3, 5]: 62.8
- Drug Liking Emax (median) [3, 5]: 53.0
- Feeling Alert/Drowsy Emax (mean) [3, 5]: 64.4
- Feeling Alert/Drowsy Emax (median) [3, 5]: 54.0
- Overall Drug Liking Emax (mean) [3, 5]: 58.5
- Overall Drug Liking Emax (median) [3, 5]: 50.0
- Take Drug Again Emax (mean) [3, 5]: 57.4
- Take Drug Again Emax (median) [3, 5]: 50.0
- Any Effects Emax (mean) [3, 5]: 28.8
- Any Effects Emax (median) [3, 5]: 14.0
- Bad Effects Emax (mean) [3, 5]: 6.04
- Bad Effects Emax (median) [3, 5]: 0.0
- Feeling High Emax (mean) [3, 5]: 25.6
- Feeling High Emax (median) [3, 5]: 7.0
- Good Effects Emax (mean) [3, 5]: 27.0
- Good Effects Emax (median) [3, 5]: 10.0
- Mean difference Any Effects Emax vs placebo ([3]; SDX Cl 240 mg): 20.5
- Mean difference Bad Effects Emax vs placebo ([3]; SDX Cl 240 mg): 8.6
- Mean difference Drug Liking Emax vs placebo ([3]; SDX Cl 240 mg): 8.3
- Mean difference Feeling Alert/Drowsy Emax vs placebo ([3]; SDX Cl 240 mg): 11.2
- Mean difference Feeling High Emax vs placebo ([3]; SDX Cl 240 mg): 18.8
- Mean difference Good Effects Emax vs placebo ([3]; SDX Cl 240 mg): 17.4
- Mean difference Overall Drug Liking Emax vs placebo ([3]; SDX Cl 240 mg): 3.3
- Mean difference Take Drug Again Emax vs placebo ([3]; SDX Cl 240 mg): 1.7
- Drug Liking Emax (mean) ([3]; SDX Cl 240 mg): 63.8
- Drug Liking Emax (median) ([3]; SDX Cl 240 mg): 59.0
- Feeling Alert/Drowsy Emax (mean) ([3]; SDX Cl 240 mg): 67.4
- Feeling Alert/Drowsy Emax (median) ([3]; SDX Cl 240 mg): 64.0
- Overall Drug Liking Emax (mean) ([3]; SDX Cl 240 mg): 58.0
- Overall Drug Liking Emax (median) ([3]; SDX Cl 240 mg): 51.0
- Take Drug Again Emax (mean) ([3]; SDX Cl 240 mg): 56.9
- Take Drug Again Emax (median) ([3]; SDX Cl 240 mg): 50.0
- Any Effects Emax (mean) ([3]; SDX Cl 240 mg): 37.0
- Any Effects Emax (median) ([3]; SDX Cl 240 mg): 23.0
- Bad Effects Emax (mean) ([3]; SDX Cl 240 mg): 13.4
- Bad Effects Emax (median) ([3]; SDX Cl 240 mg): 0.0
- Feeling High Emax (mean) ([3]; SDX Cl 240 mg): 32.1
- Feeling High Emax (median) ([3]; SDX Cl 240 mg): 19.0
- Good Effects Emax (mean) ([3]; SDX Cl 240 mg): 30.8
- Good Effects Emax (median) ([3]; SDX Cl 240 mg): 15.0
